Measured values reported in US20090186929A1, “Method and agent for inducing apoptosis/cell death in leukemia cells” (U.S. DEPARTMENT OF VETERANS AFFAIRS, priority 2003, published 2009).
Counter-ions that a name gives are not always drawn. Like-named read-outs stand apart in the source and are kept apart here.

How the values were obtained:
purified human NOS1 = biological target: T1, purified human NOS1 (Homo sapiens, UniProt P29475); test: Inhibition of purified NOS1 enzyme activity; type: biochemical; details: mean ± SEM, N = 3
T1 construct: determined using purified recombinant full-length human NOS1 and NOS2
T1 sequence (P29475 whole entry): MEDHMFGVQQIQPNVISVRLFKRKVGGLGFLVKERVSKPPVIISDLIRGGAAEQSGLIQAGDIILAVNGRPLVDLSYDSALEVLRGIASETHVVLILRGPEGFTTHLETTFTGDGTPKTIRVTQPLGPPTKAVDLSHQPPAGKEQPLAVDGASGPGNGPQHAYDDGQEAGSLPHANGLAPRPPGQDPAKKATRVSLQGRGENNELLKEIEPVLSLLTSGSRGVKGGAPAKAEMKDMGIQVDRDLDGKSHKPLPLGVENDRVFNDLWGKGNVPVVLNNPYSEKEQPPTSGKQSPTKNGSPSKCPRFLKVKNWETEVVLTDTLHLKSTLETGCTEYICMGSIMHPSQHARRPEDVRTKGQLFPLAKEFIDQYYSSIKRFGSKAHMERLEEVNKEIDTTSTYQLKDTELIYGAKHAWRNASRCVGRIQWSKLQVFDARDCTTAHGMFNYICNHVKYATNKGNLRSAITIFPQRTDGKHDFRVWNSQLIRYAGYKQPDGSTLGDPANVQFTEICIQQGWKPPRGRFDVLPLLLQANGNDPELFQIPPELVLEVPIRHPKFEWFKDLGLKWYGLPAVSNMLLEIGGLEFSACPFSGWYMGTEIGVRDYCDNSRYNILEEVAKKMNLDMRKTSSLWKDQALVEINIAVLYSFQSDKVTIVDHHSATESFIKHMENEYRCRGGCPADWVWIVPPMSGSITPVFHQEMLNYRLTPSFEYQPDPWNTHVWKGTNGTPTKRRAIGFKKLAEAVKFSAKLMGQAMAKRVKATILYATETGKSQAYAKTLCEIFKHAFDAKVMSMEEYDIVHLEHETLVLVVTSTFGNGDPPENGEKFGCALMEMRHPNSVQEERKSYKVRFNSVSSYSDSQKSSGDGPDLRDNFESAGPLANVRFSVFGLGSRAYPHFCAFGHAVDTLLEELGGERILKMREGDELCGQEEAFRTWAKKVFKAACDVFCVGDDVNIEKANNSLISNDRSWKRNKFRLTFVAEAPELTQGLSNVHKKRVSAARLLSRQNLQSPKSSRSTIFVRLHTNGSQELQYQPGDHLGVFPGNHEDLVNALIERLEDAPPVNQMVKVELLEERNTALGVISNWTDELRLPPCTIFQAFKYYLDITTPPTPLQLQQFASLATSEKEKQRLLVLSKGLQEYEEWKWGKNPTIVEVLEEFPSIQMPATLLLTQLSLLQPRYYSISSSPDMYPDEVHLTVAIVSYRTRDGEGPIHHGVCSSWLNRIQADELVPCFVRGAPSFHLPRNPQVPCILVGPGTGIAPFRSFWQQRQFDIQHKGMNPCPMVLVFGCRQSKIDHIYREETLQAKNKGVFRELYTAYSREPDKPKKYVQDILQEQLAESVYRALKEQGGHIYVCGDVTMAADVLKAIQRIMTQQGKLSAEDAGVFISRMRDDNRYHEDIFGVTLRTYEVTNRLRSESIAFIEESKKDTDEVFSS
Description: (§1) The NOS1 and NOS2 IC50's and Kd's for each NOS inhibitor were determined using purified recombinant full-length human NOS1 and NOS2. The cLogP value for each NOS inhibitor was determined using the CLOGP computer program (BioByte, Claremont, Calif.). […] Linear regression was used to examine the correlation between the IC50, Kd and cLogP values and ED50 values.
(§2) We determined the dissociation constant for NOS inhibitor binding (Kd) to purified recombinant and NOS2.

purified human NOS2 = biological target: T2, purified human NOS2 (Homo sapiens, UniProt P35228); test: Inhibition of purified NOS2 enzyme activity; type: biochemical; details: mean ± SEM, N = 3
T2 construct: determined using purified recombinant full-length human NOS1 and NOS2
T2 sequence (P35228 whole entry): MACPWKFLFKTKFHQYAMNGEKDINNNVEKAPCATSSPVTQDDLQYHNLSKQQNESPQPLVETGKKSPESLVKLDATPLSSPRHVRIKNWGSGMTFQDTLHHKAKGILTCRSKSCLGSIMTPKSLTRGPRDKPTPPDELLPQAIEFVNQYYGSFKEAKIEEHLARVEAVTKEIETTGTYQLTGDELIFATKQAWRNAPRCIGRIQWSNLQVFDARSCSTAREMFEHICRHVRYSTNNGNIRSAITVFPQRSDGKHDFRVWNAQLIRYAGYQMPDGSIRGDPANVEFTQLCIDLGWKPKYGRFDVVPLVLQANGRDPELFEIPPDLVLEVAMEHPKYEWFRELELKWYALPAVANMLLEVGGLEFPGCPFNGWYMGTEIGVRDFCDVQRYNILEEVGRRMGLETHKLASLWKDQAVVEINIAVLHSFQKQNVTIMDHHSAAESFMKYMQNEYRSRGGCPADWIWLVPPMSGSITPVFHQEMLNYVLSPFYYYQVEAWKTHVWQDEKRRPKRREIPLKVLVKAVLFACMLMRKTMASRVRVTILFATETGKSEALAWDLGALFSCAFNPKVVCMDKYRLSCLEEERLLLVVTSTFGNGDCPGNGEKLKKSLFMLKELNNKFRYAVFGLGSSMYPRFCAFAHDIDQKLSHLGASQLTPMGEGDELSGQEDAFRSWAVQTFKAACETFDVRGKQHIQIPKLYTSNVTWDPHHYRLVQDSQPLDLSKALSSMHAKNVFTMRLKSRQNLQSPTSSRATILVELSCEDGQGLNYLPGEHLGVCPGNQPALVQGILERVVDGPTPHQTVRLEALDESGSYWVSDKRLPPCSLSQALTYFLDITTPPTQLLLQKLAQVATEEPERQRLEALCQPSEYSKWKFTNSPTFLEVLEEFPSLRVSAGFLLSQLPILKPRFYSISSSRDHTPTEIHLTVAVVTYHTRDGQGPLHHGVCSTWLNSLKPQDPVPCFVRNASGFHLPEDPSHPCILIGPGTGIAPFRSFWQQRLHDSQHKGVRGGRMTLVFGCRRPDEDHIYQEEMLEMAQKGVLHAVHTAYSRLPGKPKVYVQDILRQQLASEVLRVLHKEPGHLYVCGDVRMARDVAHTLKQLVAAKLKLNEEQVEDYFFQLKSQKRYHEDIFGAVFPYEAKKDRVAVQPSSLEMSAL
Description: as §1, §2

[1] = biological target: T3, purified recombinant rat NOS1 oxygenase domain (Rattus norvegicus, UniProt P29476); test: NOS inhibitor binding (Kd) to NOS1
T3 construct: purified recombinant rat NOS1 oxygenase domain
T3 sequence (P29476 1-720 limits assumed): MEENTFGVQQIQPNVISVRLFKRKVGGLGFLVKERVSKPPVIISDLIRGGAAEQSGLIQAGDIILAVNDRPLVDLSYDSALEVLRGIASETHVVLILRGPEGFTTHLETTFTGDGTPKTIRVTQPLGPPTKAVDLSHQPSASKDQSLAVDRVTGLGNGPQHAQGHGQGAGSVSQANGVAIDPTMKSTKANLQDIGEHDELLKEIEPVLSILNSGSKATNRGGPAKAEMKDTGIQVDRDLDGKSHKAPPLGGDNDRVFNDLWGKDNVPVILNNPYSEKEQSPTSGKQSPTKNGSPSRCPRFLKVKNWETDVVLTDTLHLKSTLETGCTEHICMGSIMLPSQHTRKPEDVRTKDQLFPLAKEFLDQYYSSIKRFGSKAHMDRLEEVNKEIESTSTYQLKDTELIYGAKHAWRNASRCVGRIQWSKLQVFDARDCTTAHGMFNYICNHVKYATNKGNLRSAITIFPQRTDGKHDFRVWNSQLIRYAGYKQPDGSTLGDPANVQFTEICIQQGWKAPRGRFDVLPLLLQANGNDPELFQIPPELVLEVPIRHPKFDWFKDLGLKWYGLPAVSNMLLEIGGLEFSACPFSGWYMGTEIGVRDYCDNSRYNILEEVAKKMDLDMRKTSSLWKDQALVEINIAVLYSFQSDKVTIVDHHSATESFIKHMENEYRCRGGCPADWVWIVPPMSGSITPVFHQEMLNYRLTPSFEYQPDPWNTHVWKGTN

[2] = biological target: T4, purified recombinant human NOS2 oxygenase domain (Homo sapiens, UniProt P35228); test: NOS inhibitor binding (Kd) to NOS2
T4 construct: purified recombinant human NOS2 oxygenase domain
T4 sequence (P35228 1-504 limits assumed): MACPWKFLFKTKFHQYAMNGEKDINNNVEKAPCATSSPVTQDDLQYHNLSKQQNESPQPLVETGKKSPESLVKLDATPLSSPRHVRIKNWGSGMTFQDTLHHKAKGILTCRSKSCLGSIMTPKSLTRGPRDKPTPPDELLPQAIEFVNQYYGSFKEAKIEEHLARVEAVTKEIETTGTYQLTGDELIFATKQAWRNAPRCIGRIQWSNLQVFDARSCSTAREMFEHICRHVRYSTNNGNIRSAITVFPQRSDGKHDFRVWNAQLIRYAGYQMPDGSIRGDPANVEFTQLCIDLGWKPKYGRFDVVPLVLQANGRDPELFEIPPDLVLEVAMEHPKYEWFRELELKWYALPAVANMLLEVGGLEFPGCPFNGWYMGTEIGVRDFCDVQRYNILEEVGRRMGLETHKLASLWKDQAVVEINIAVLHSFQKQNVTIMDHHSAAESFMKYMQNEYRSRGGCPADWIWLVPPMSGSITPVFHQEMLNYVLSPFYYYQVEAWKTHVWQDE
Description: […] The cLogP value for each NOS inhibitor was determined using the CLOGP computer program (BioByte, Claremont, Calif.). […] Linear regression was used to examine the correlation between the IC50, Kd and cLogP values and ED50 values.
as §2

CLL cells [3] = test: Cytotoxicity of NOS inhibitors for CLL cells in vitro (MTS assay); details: for EC50: read-out: Mean ED50 ± S.E.M. (CLL cell cytotoxicity)
Text: We worked to optimize the culture of CLL cells (Reference 86). […] These were all tested with and without albumin, fetal bovine serum, human serum, glutamine, insulin, transferrin, selenium, and mercaptoethanol.
Toxicity could be detected by disappearance of cells from the culture (reduction in overall cell number), uptake of trypan blue, propidium iodide uptake (flow cytometry), MTS (4,5-dimethylthiazol-2-yl)-5-(3-carboxymethoxyphenyl)-2-(4-sulfophenyl)-2H-tetrazolium, inner salt) assay (cellular respiration), and several parameters of apoptosis [annexin V assay, DNA content […], and TUNEL assay].

[4] = 50 mg/kg in mice; cited from earlier work
[5] = test system: freshly-isolated CLL cells; test: Exogenous NO donors and drugs on freshly-isolated CLL cells (apoptosis and death); type: cell-based, human; details: for NO / DETA-NO interaction with the agent's activity on CLL cells: combination of the agent with NO donor
Text: We next wanted to examine CLL cells. These malignant cells differ in many ways from ANLL and normal hematopoietic. In addition to their different lineage, they are unique in that they have a very low […], exist primary in the G0 phase of the cell cycle, and have defective apoptosis.

CLL cell caspase-3 = CLL cell caspase-3 enzyme activity after culture with AR-R17477; type: cell-based, human; details: for Mean caspase-3 activity: 4 h culture, N = 3
CLL cells [6] = test: CLL cell apoptosis by Annexin V binding; type: cell-based, human
Description: Annexin V binding to CLL cells increased after CLL cell co-culture for 2-6 h.

[7] = test system: HL-60 myeloblastic leukemia cells; test: NO drugs on growth of HL-60 myeloblastic leukemia cells; type: cell-based, human; details: NO delivered from the drug
Text: While studying NO and macrophages progressed in the late 1980s, we hypothesized that NO produced in the BM (bone marrow) would be a modulator of normal and leukemic hematopoiesis. […] The differentiated cells were vacuolated, and had increased expression of nonspecific esterase, CD11b, and CD14.

normal human BM cells = test: NO drugs on colony formation of normal human BM cells; type: cell-based; details: for Development of marrow colonies: methylcellulose with erythropoietin and colony stimulating factors
Description: The effects of NO on the growth and differentiation of normal human BM cells were analyzed (Reference 85). We felt that normal hematopoietic cells, like malignant hematopoietic cells, would be affected by NO. […] NO reduced formation of BFU-E (burst forming unit-erythroid), CFU-E, CFU-GM (colony forming unit-granulocyte/macrophage), and CFU-M (colony forming unit-macrophage). […] In retrospect, we think that the increase in CFU-GM by NO from SNP may be due to alterations in apoptosis secondary to changes in bcl-2 or caspases. None of the noted inhibitions were related to cGMP (cyclic-guanosine monophosphate).

[8] = MTS assay, CLL cell samples from different subjects

Compound: CC(=N)NCCCC[C@H](N)C(=O)O [L-NIL, L-N^6-(1-Iminoethyl)-lysine]
- IC50 (purified human NOS1): 47 ± 1.2 µM
- IC50 (purified human NOS2): 2.1 µM
- Kd [1]: 700 nM
- Kd [2]: 500 nM

Compound: N=C(N)SCCc1ccc(CCSC(=N)N)cc1 [1,4 PB-ITU, S,S′-(1,4-Phenylene-bis(1,2-ethanediyl))bis-isothiourea 2HBr]
- EC50 (CLL cells [3]; Homo sapiens, CLL cell): 321 ± 38.9 µM

Compound: CCSC(=N)Nc1ccc(C(F)(F)F)cc1 [ETPI, S-Ethyl-N-[4-(trifluoromethyl)phenyl]isothiourea HCl]
- EC50 (CLL cells [3]; Homo sapiens, CLL cell): 129 ± 20 µM
- IC50 (purified human NOS1): 7.8 ± 2.5 µM
- IC50 (purified human NOS2): 1500 ± 240 µM
- Kd [1]: 100 nM
- Kd [2]: 500 nM

Compound: CC(=N)NCCSCC[C@H](N)C(=O)O [GW274150, (S)-2-Amino-(1-iminoethylamino)-5-thioheptanoic acid]
- IC50 (purified human NOS1): 140 ± 15 µM
- IC50 (purified human NOS2): 1.8 ± 0.3 µM

Compound: N=C(N)SCCc1cccc(CCSC(=N)N)c1 [1,3 PB-ITU, S,S′-(1,3-Phenylene-bis(1,2-ethanediyl))bis-isothiourea 2HBr]
- EC50 (CLL cells [3]; Homo sapiens, CLL cell): 293 ± 26.5 µM
- IC50 (purified human NOS1): 4.7 ± 0.8 µM
- IC50 (purified human NOS2): 1.6 ± 0.3 µM

Compound: N=C(N)NCCSSCCNC(=N)N [GED, Guanidinoethyldisulfide 2H2CO3]
- EC50 (CLL cells [3]; Homo sapiens, CLL cell): 317 ± 77 µM
- IC50 (purified human NOS1): 280 ± 80 µM
- IC50 (purified human NOS2): 50 ± 9.5 µM

Compound: FC(F)(F)c1ccccc1-n1ccnc1 [TRIM, 1-(2-Trifluoromethylphenyl)imidazole]
- EC50 (CLL cells [3]; Homo sapiens, CLL cell): 421 ± 61 µM
- Effect on anxiety and depression [4]: effective at reducing anxiety and depression
- Side effects [4]: mild motor incoordination

Compound: O=[N+]([O-])c1cccc2c(Br)n[nH]c12 [3-Bromo-7-NI, 3-Bromo-7-nitroindazole]
- EC50 (CLL cells [3]; Homo sapiens, CLL cell): 225 ± 20 µM

Compound: COc1cccc2c1C(=O)c1c(O)c3c(c(O)c1C2=O)C[C@@](O)(C(=O)CO)C[C@@H]3O[C@H]1C[C@H](N)[C@H](O)[C@H](C)O1 [doxorubicin]
- NO / DETA-NO interaction with the agent's activity on CLL cells [5]: did not enhance the activity

Compound: COc1nc(N)nc2c1ncn2[C@@H]1O[C@H](CO)[C@@H](O)[C@@H]1O [506U78, 2-amino-9-β-D-6-methoxy araguanine]
- NO / DETA-NO interaction with the agent's activity on CLL cells [5]: synergized

Compound: COC(=O)[C@@H](N)CCCNC(N)=N[N+](=O)[O-] [L-NAME, N^G-Nitro-L-arginine-methyl ester HCl]
- EC50 (CLL cells [3]; Homo sapiens, CLL cell): 7220 ± 1300 µM
- IC50 (purified human NOS1): 0.89 ± 0.06 µM
- IC50 (purified human NOS2): 17 ± 1.5 µM
- Kd [1]: 500 nM
- Kd [2]: 600 nM

Compound: NCCNCCN [DETA]
- Effect on CLL cell apoptosis and death [5]: had no effects

Compound: CSC(=N)N [S-Methyl ITU, S-methylisothiourea sulfate]
- EC50 (CLL cells [3]; [8]): 3080 ± 423 µM

Compound: C/C1=C2/[N-][C@H]([C@H](CC(N)=O)[C@@]2(C)CCC(=O)NC[C@@H](C)OP(=O)([O-])O[C@H]2[C@@H](O)[C@@H](n3cnc4cc(C)c(C)cc43)O[C@@H]2CO)[C@]2(C)N=C(/C(C)=C3N=C(/C=C4N=C1[C@@H](CCC(N)=O)C\4(C)C)[C@@H](CCC(N)=O)[C@]\3(C)CC(N)=O)[C@@H](CCC(N)=O)[C@]2(C)CC(N)=O.[Co+3].[OH-] [hydroxycobalamin]
- Cytotoxicity for CLL cells (in words) (CLL cells [3]): not cytotoxic

Compound: CCSC(=N)N [S-Ethyl ITU, S-Ethylisothiourea HBr]
- IC50 (purified human NOS1): 7.7 ± 1.8 µM
- IC50 (purified human NOS2): 1200 ± 290 µM

Compound: Cl.Cl.N=C(Nc1ccc(CCNCc2cccc(Cl)c2)cc1)c1cccs1 [AR-R17477, N-(4-(2-((3-Chlorophenylmethyl)amino)ethyl)phenyl)-2-thiophecarboxamidine dihydrochloride]
- ED50 ranking, FIG. 10 (CLL cells [3]; cytotoxicity for CLL cells in vitro): lowest ED50
- EC50 (CLL cells [3]; [8]): 7 ± 0.7 µM
- Mean caspase-3 activity (CLL cell caspase-3; 5 μM): 9741 arbitrary fluorescence units
- Mean caspase-3 activity (CLL cell caspase-3; 10 μM): 7474 arbitrary fluorescence units
- Mean caspase-3 activity (CLL cell caspase-3; 20 μM): 8074 arbitrary fluorescence units
- CLL cell caspase-3 enzyme activity (time course) (CLL cell caspase-3; co-culture for 4 to 19 h): increased
- CLL cell caspase-3 enzyme activity (concentration dependence) (CLL cell caspase-3; various concentrations, 4 h): dose-dependent increase
- CLL cell apoptosis (CLL cells [6]): induced CLL cell apoptosis
- Annexin V binding to CLL cells (CLL cells [6]; co-culture for 2-6 h): increased

Compound: N=C(N)SCCCN [S-Aminopropyl ITU, S-(3-Aminopropyl)isothiourea 2HBr]
- EC50 (CLL cells [3]; Homo sapiens, CLL cell): 112 ± 45.5 µM
- IC50 (purified human NOS1): 3.8 ± 0.5 µM
- IC50 (purified human NOS2): 1.9 ± 0.2 µM

Compound: CC1CCN=C(N)S1 (centres unmarked) [AMT, 2-Amino-5,6-dihydro-6-methyl-4H-1.3-thiazine HCl]
- IC50 (purified human NOS1): 0.092 ± 0.002 µM
- IC50 (purified human NOS2): 0.054 ± 0.001 µM

Compound: N=C(NCCC[C@H](N)CNCCN)N[N+](=O)[O-] [NAAANG, (4S)-N-(4-Amino-5[aminoethyl]aminopentyl)-N′-nitroguanidine 3TFA]
- EC50 (CLL cells [3]; Homo sapiens, CLL cell): 5230 ± 3200 µM

Compound: CC1(C)N([O])C(c2ccc(C(=O)O)cc2)=[N+]([O-])C1(C)C [carboxy-PTIO]
- Cytotoxicity for CLL cells (in words) (CLL cells [3]): not cytotoxic

Compound: CCc1c2c(nc3ccc(O)cc13)-c1cc3c(c(=O)n1C2)COC(=O)[C@]3(O)CC [SN-38]
- NO / DETA-NO interaction with the agent's activity on CLL cells [5]: did not enhance the activity

Compound: CCCNC(=N)NCCC[C@H](N)C(=O)O [N-Propyl-L-arginine, N^5-[Imino(propylamino)methyl]-L-ornithine]
- IC50 (purified human NOS2): 146 ± 36 µM
- Kd [2]: 7000 nM

Compound: [NH-]c1c[n+](N2CCOCC2)no1 [SIN-1]
- Growth of HL-60 cells [7]: potently inhibited the growth
- Development of marrow colonies (normal human BM cells): inhibited development of marrow colonies

Compound: CC(=N)NCc1cccc(CN)c1 [1400W, N-(3-(Aminomethyl)benzyl)acetamidine 2HCl]
- EC50 (CLL cells [3]; Homo sapiens, CLL cell): 8240 ± 1880 µM

Compound: S-nitrosoacetylpenicillamine [SNAP]
- Growth of HL-60 cells [7]: potently inhibited the growth
- Erythroid and myeloid colonies (normal human BM cells; isolated CD34+ cells): inhibited
- Development of marrow colonies (normal human BM cells): inhibited development of marrow colonies

Compound: O=[N+]([O-])c1cccc2cn[nH]c12 [7-NI, 7-Nitroindazole]
- EC50 (CLL cells [3]; Homo sapiens, CLL cell): 200 ± 29 µM
- IC50 (purified human NOS1): 72 ± 16 µM
- IC50 (purified human NOS2): 45 ± 5.9 µM
- Effect on anxiety and depression [4]: effective at reducing anxiety and depression
- Side effects [4]: mild motor incoordination

Compound: O=c1[nH]cc(F)c(=O)[nH]1 [5-fluorouracil]
- NO / DETA-NO interaction with the agent's activity on CLL cells [5]: did not enhance the activity

Compound: Nc1ccn([C@@H]2O[C@H](CO)[C@@H](O)C2(F)F)c(=O)n1 [gemcitabine]
- NO / DETA-NO interaction with the agent's activity on CLL cells [5]: did not enhance the activity

Compound: Mercaptoethylguanidine sodium succinate [MEG]
- EC50 (CLL cells [3]; [8]): 181 ± 36.4 µM

Compound: O=C(O)CCCc1ccc(N(CCCl)CCCl)cc1 [chlorambucil]
- NO / DETA-NO interaction with the agent's activity on CLL cells [5]: did not enhance the activity
